Experimental findings from PMC10857906, “PROTAC-mediated NR4A1 degradation as a novel strategy for cancer immunotherapy” (The Journal of Experimental Medicine, 2024) are described below.

One experiment deals with TI-B cells. Description: Immune profile by flow cytometry in Yumm1.7 tumor-bearing mice. In kind it is in vivo, mouse. The following applies: Yumm1.7 tumors, 2 doses of 1.8 mg/kg i.p. The method, then: (§1) For syngeneic tumor models, 5 × 10^5 cells MC38, Yumm1.7, and Yummer1.7, 1 × 10^5 cells of B16F10 were resuspended in PBS and implanted into 7–9-wk-old mice subcutaneously. For the tumor inhibition experiment, mice were treated with 1.8 mg/kg NR-V04 or 0.75 mg/kg celastrol by i.p. injection twice weekly. For the immune profile experiment, once tumors reached 0.5 cm in diameter, mice were treated with 1.8 mg/kg NR-V04 by i.p. injection twice weekly. For the toxicity experiment, male and female non-tumor-bearing mice were treated with 2 mg/kg NR-V04 for two doses in the first week and 5 mg/kg for another two doses in the second week. Blood samples were taken from the submandibular (facial) vein before each treatment and 42 days later for hematological analysis, and body weight was measured twice per week up to day 42. Mice were euthanized in accordance with the IACUC protocol once the largest tumors reached 2 cm in diameter, and tissues were collected for further analysis.
Mouse tumors were excised and ∼200 mg of tumor tissue was enzymatically and mechanically digested using the mouse Tumor Dissociation Kit (Miltenyi Biotec) to obtain a single-cell suspension. […] Flow cytometry was performed on a three laser Cytek Aurora Cytometer (Cytek Biosciences) and analyzed using FlowJo software (BD Biosciences). […]

In another experiment the test system is B16F10 melanoma. Description: B16F10 melanoma syngeneic tumor model. In kind it is in vivo, mouse.
From the text: 7–9-wk-old C57BL/6J, B6.129S2-Ighm^tm1Cgn/J (002288), B6.129S2-Nr4a1^tm1Jmi/J (NR4A1^−/−, 006187), and NOD-SCID interleukin-2 receptor gamma null (NSG) mice were purchased from Jackson Laboratories. For all studies involving NR-V04 and celastrol, the compounds were formulated in 50% phosal PG, 45% miglyol 810N, and 5% polysorbate 80 and administered via i.p. injection.
as §1

For `CC1=C(O)C(=O)C=C2C1=CC=C1[C@@]2(C)CC[C@@]2(C)[C@@H]3C[C@](C)(C(=O)NCCOCCOCCOCCOCC(=O)N[C@H](C(=O)N4C[C@H](O)C[C@H]4C(=O)N[C@@H](C)c4ccc(-c5scnc5C)cc4)C(C)(C)C)CC[C@]3(C)CC[C@]12C` [NR-V04], the TI-B cells result with TI-B cells is reported as “significant increase in the TI-B cells”. In addition, the tumor growth entry in the experiment with B16F10 melanoma (B16F10 in B6.129S2-Ighm^tm1Cgn/J mice that lack mature B cells) is given as “unable to inhibit tumor growth”; in the experiment on B16F10 melanoma (B16F10 in NR4A1^−/− mice, 1.8 mg/kg i.p.) it was “failed to inhibit B16F10”; in the experiment with B16F10 melanoma (B16F10 in NSG mice, 1.8 mg/kg i.p.), “failed to inhibit tumor growth”; with B16F10 melanoma (B16F10 in WT mice, 1.8 mg/kg NR-V04 or 0.75 mg/kg celastrol i.p. twice a week from day 7) it was “effectively inhibited tumor growth”.
